{
  "source": "patent US10905651B1",
  "about": "“Zeinmersome nanocarriers for drug delivery to the liver” (King Abdulaziz University, priority 2020, dated 2021)",
  "test_system": "TAA-induced hepatic fibrosis rats",
  "test": "Inflammatory and oxidative markers in liver homogenate of TAA-induced hepatic fibrosis rats",
  "format": "in vivo, rat",
  "conditions": "two months; for IL-6 level in liver homogenate (reversal of TAA-induced increase): FIG. 5A; for TNF-α level in liver homogenate (reversal of TAA-induced increase): FIG. 5B; for MDA level in liver homogenate (reversal of TAA-induced increase): FIG. 6A; for GSH level in liver homogenate (reversal of TAA-induced decrease): FIG. 6B",
  "description": "Rats were given freshly prepared TAA (0.9% w/v in saline solution, 200 mg/kg, ip) twice weekly for eight weeks. A normal control (NC) group of rats (n=8) received injections of the vehicle twice weekly for eight weeks. The TAA-treated rats were randomly assigned to groups (n=8), including a test group for each dosage of a free drug (not encapsulated in ZMS), each dosage of zeinmersomes encapsulating the drug, and a positive control group (PC) having hepatic fibrosis but receiving a vehicle-only treatment instead of a drug treatment. Five groups of rats (n=8) were given freshly prepared TAA (0.9% w/v in saline solution, 200 mg/kg, ip) twice weekly for eight weeks and a normal control (NC) group received vehicle injections, as described in Example 4. The five TAA groups included a positive control group (PC, untreated) and four groups treated with low and high doses (2 and 4 mg/kg/day) of OM as raw drug (OL & OH, respectively) and the same low and high doses (2 and 4 mg/kg/day) of OM formulated as zeinmersomes (OLZMS & OHZMS, respectively). The OM standard drug was suspended in distilled water containing 0.25% w/v carboxymethyl cellulose. The doses were given by oral gavage once daily for two months. […] At the end of treatment duration, blood samples were withdrawn from the retro-orbital plexus of the rats under light ether anesthesia. Plasma was separated and kept at −80° C. until analysis. Then, the rats were sacrificed by cervical dislocation under ether anesthesia. Liver and duodenum were isolated and parts of each were kept in 10% formalin-saline for histopathological examination. Other portions of liver tissue were homogenized. The plasma levels of ALT and AST and the homogenate levels of IL-6, reduced glutathione (GSH), TNF-α, malondialdehyde (MDA), and protein content were measured using ELISA kits (MyBioSource, Inc. CA, USA). In addition, the concentrations of olmesartan in plasma and liver homogenate were measured by HPLC/MS. A part of the liver of each animal was rapidly dissected out, washed, and homogenized in phosphate-buffered saline (0.01M PBS, pH 7.4) using a TissueLyser II (Qiagen; Venlo, Netherlands) at 4° C. to produce a 10% homogenate. The homogenates were centrifugated at 10000 rpm for 15 min at 4° C. and the supernatant was kept at −80° C. till time of analysis. The levels of TNF-α, IL-6, malondialdehyde (MDA), and reduced glutathione (GSH) were measured by the ELISA kits using a micro plate reader (Versa Max, Molecular Devices). The protein content in the liver homogenate was determined by using a colorimetric kit based on Bradford method (Bradford 1976) and the levels of IL-6, TNF-α, GSH, and MDA were expressed/mg protein. The IL-6 level was measured by using the competitive enzyme immunoassay technique utilizing a polyclonal anti-IL-6 antibody and an IL-6-HRP conjugate. The assay sample and buffer were incubated together with IL-6-HRP conjugate in pre-coated plate for one hour. After washing, the wells were then incubated with a substrate for HRP enzyme. The product of the enzyme-substrate reaction formed a blue colored complex. Finally, a stop solution was added to stop the reaction, which then turned the solution yellow. Absorbance was read at 450 nm in a microplate reader. The TNF-α level was measured by using the principle of double antibody sandwich ELISA technique is used. Anti-TNF-α antibody was pre-coated on the wells. Add biotin labeled anti-TNF-α antibodies to combine with the antigens on immune complexes. Avidin-Biotin-Peroxidase Complex was added, and unbound conjugates were washed away with wash buffer. TMB substrates were used to visualize HRP enzymatic reaction producing a blue color product that changed into yellow after adding acidic stop solution. The density of yellow is proportional to TNF-α amount of sample captured in plate. Absorbance was read at 450 nm. The GSH level was measured by using the principle of double antibody sandwich ELISA technique. Anti-GSH antibody was pre-coated on the wells. […]",
  "data": [
    {"smiles": "CCCc1nc(C(C)(C)O)c(C(=O)OCc2oc(=O)oc2C)n1Cc1ccc(-c2ccccc2-c2nnn[nH]2)cc1", "note": "[OM, (5-methyl-2-oxo-1,3-dioxol-4-yl)methyl 5-(2-hydroxypropan-2-yl)-2-propyl-3-[[4-[2-(2H-tetrazol-5-yl)phenyl]phenyl]methyl]imidazole-4-carboxylate]", "values": [
      {"measurement": "IL-6 level in liver homogenate (reversal of TAA-induced increase)", "setting": "high dose 4 mg/kg/day oral", "result": "significantly reversed"},
      {"measurement": "TNF-α level in liver homogenate (reversal of TAA-induced increase)", "setting": "high dose 4 mg/kg/day oral", "result": "significantly reversed"},
      {"measurement": "MDA level in liver homogenate (reversal of TAA-induced increase)", "setting": "high dose 4 mg/kg/day oral", "result": "significantly reversed"},
      {"measurement": "GSH level in liver homogenate (reversal of TAA-induced decrease)", "setting": "high dose 4 mg/kg/day oral", "result": "significantly reversed"},
      {"measurement": "IL-6 level in liver homogenate (reversal of TAA-induced increase)", "setting": "low dose 2 mg/kg/day oral", "result": "All treatments except for OL significantly reversed"},
      {"measurement": "TNF-α level in liver homogenate (reversal of TAA-induced increase)", "setting": "low dose 2 mg/kg/day oral", "result": "All treatments except for OL significantly reversed"},
      {"measurement": "MDA level in liver homogenate (reversal of TAA-induced increase)", "setting": "low dose 2 mg/kg/day oral", "result": "All treatments except for OL significantly reversed"},
      {"measurement": "GSH level in liver homogenate (reversal of TAA-induced decrease)", "setting": "low dose 2 mg/kg/day oral", "result": "All treatments except for OL significantly reversed"}
    ]}
  ]
}
